System: Human Cav2.3 channel
Test: Human Cav2.3 channel calcium-influx assay
Format: cell-based
Conditions: Fluo8 fluorescence, HEK-293 T-Rex/Kir2.1/Cav2.3e cells, without pluronic acid
In short: (§1)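 Signal = peak fluorescence (5–130 s) minus baseline (1–2 s), normalized to neutral (0) and inhibitor (−100) controls as % effect. Depolarization used final 20 mM KCl, 130 mM NaCl, 2 mM CaCl2, after 3 min RT compound exposure (30 μM top, half-log, 8 points, 0.3% DMSO) in doxycycline-induced HEK-293 T-Rex/Kir2.1/Cav2.3e-β4-α2δ1 cells with Fluo8 NW.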

Cav2.3 (pIC50) | Structure (SMILES)
5.73 | CCN([C@@H](c1ccc(F)c(F)c1)C(F)(F)F)S(=O)(=O)c1cncc(C#N)c1 [Example 249, (S)-5-cyano-N-(1-(3,4-difluorophenyl)-2,2,2-trifluoroethyl)-N-ethylpyridine-3-sulfonamide]
7.14 | CCN([C@H](c1ccc(F)c(F)c1)C(F)(F)F)S(=O)(=O)c1cncc(C#N)c1 [Example 250, (R)-5-cyano-N-(1-(3,4-difluorophenyl)-2,2,2-trifluoroethyl)-N-ethylpyridine-3-sulfonamide]
7.18 | CCN([C@H](c1cccc(Cl)c1)C(F)(F)F)S(=O)(=O)c1cncc(C#N)c1 [Example 251, (R)—N-(1-(3-chlorophenyl)-2,2,2-trifluoroethyl)-5-cyano-N-ethylpyridine-3-sulfonamide]
5.71 | CCN([C@@H](c1cccc(Cl)c1)C(F)(F)F)S(=O)(=O)c1cncc(C#N)c1 [Example 252, (S)—N-(1-(3-chlorophenyl)-2,2,2-trifluoroethyl)-5-cyano-N-ethylpyridine-3-sulfonamide]
5.56 | CCN([C@@H](c1ccc(F)c(Cl)c1)C(F)(F)F)S(=O)(=O)c1cncc(C#N)c1 [Example 253, (S)—N-(1-(3-chloro-4-fluorophenyl)-2,2,2-trifluoroethyl)-5-cyano-N-ethylpyridine-3-sulfonamide]
7.33 | CCN([C@H](c1ccc(F)c(Cl)c1)C(F)(F)F)S(=O)(=O)c1cncc(C#N)c1 [Example 254, (R)—N-(1-(3-chloro-4-fluorophenyl)-2,2,2-trifluoroethyl)-5-cyano-N-ethylpyridine-3-sulfonamide]
6.96 | CN(C(c1ccc(C(F)(F)F)c(F)c1)C(F)(F)F)S(=O)(=O)c1cncc(C#N)c1 (stereo not drawn) [Example 255, 5-cyano-N-methyl-N-(2,2,2-trifluoro-1-(3-fluoro-4-(trifluoromethyl)phenyl)ethyl)pyridine-3-sulfonamide]
5.87 | CCN([C@@H](c1ccc(F)c(OC)c1)C(F)(F)F)S(=O)(=O)c1cncc(C#N)c1 [Example 258, (S)-5-cyano-N-ethyl-N-(2,2,2-trifluoro-1-(4-fluoro-3-methoxyphenyl)ethyl)pyridine-3-sulfonamide]
6.61 | CCN([C@H](c1ccc(F)c(OC)c1)C(F)(F)F)S(=O)(=O)c1cncc(C#N)c1 [Example 259, (R)-5-cyano-N-ethyl-N-(2,2,2-trifluoro-1-(4-fluoro-3-methoxyphenyl)ethyl)pyridine-3-sulfonamide]
4.96 | CCN(C(c1ncc(C)s1)C(F)(F)F)S(=O)(=O)c1cncc(C#N)c1 (stereo not drawn) [Example 264, 5-Cyano-N-ethyl-N-(2,2,2-trifluoro-1-(5-methylthiazol-2-yl)ethyl)pyridine-3-sulfonamide]
6.54 | Cc1ccc(S(=O)(=O)N(C)[C@H](c2ccc(C(F)(F)F)cc2)C(F)(F)F)cn1 [Example 266, (R)—N,6-dimethyl-N-(2,2,2-trifluoro-1-(4-(trifluoromethyl)phenyl)ethyl)pyridine-3-sulfonamide]
7.09 | CN([C@H](c1ccc(C(F)(F)F)cc1)C(F)(F)F)S(=O)(=O)c1cccnc1 [Example 267, (R)—N-methyl-N-(2,2,2-trifluoro-1-(4-(trifluoromethyl)phenyl)ethyl)pyridine-3-sulfonamide]

Molecular target: Cav2.3 (Homo sapiens, UniProt Q15878)
Sequence (Q15878 whole entry, looked up): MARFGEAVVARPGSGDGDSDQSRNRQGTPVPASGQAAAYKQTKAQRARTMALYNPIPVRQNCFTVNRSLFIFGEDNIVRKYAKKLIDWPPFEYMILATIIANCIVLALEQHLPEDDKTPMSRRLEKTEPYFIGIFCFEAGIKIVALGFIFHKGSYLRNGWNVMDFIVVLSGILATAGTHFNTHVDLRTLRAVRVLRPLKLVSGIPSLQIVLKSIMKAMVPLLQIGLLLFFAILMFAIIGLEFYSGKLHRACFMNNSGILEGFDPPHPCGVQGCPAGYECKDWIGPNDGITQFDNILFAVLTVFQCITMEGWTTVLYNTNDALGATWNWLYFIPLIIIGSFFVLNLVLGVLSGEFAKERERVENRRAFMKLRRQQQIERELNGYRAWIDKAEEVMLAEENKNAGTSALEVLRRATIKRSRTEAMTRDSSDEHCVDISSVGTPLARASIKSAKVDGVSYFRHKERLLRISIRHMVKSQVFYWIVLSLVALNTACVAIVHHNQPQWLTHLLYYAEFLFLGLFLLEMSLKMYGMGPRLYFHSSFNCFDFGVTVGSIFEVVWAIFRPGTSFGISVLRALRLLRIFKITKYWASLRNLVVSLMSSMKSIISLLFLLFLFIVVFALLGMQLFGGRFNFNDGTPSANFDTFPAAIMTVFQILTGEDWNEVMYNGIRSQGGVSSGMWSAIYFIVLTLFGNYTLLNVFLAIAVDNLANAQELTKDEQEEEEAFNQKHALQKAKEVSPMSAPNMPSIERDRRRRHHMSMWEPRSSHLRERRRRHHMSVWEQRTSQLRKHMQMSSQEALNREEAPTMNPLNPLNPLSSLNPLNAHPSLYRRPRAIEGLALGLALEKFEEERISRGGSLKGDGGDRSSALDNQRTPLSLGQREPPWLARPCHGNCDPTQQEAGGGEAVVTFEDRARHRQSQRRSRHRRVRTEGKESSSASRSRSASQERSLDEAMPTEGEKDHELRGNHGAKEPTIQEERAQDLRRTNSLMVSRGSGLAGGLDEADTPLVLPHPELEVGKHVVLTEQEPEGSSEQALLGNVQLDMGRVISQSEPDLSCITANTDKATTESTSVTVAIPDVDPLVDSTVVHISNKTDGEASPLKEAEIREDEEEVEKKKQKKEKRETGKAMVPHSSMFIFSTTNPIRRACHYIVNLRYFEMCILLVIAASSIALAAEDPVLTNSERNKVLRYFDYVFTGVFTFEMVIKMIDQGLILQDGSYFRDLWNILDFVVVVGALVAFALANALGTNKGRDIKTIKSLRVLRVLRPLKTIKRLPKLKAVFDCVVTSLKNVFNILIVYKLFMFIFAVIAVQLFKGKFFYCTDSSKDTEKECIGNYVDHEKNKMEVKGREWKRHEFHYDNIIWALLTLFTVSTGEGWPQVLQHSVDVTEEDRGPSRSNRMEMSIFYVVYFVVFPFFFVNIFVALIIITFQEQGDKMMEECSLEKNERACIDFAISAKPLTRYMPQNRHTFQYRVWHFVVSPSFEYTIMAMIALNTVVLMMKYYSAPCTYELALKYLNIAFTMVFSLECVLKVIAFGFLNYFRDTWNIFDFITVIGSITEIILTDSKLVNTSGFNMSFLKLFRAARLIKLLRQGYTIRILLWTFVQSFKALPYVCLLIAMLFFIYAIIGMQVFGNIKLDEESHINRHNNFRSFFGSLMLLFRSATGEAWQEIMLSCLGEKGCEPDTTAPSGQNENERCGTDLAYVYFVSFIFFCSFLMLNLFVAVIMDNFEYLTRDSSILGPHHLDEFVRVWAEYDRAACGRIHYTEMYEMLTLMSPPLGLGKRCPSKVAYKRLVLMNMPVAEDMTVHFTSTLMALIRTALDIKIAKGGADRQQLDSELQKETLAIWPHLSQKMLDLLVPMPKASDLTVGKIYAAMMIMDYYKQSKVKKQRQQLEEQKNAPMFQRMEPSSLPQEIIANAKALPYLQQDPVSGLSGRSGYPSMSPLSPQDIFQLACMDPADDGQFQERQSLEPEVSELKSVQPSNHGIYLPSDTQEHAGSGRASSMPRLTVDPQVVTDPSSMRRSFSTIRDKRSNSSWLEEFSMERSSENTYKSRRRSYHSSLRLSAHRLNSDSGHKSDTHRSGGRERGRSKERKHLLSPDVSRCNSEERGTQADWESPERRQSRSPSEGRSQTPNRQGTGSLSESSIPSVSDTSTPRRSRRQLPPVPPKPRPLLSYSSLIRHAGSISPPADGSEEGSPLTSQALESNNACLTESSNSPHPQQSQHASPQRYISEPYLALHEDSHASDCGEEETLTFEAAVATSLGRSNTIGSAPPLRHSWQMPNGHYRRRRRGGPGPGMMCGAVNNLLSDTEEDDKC
Test: Human Cav2.3 channel calcium-influx assay
Format: cell-based
Conditions: Fluo8 fluorescence, HEK-293 T-Rex/Kir2.1/Cav2.3e cells, without pluronic acid, read-out: Cav2.3 (pIC50) (converted)
In short: as §1

IC50 [nM] | Structure (SMILES)
155 | CN(C(c1ccc(F)cc1)C(F)(F)F)S(=O)(=O)c1cncc(C#N)c1 (racemic) [Example 272, 5-Cyano-N-methyl-N-(2,2,2-trifluoro-1-(4-fluorophenyl)ethyl)pyridine-3-sulfonamide]
11700 | CN([C@@H](c1ccc(F)cc1)C(F)(F)F)S(=O)(=O)c1ccc(F)s1 (stereo in doubt) [Example 18, 5-fluoro-N-methyl-N-(2,2,2-trifluoro-1-(4-fluorophenyl)ethyl)thiophene-2-sulfonamide]
2400 | CN([C@H](c1ccc(F)cc1)C(F)(F)F)S(=O)(=O)c1ccc(F)s1 (stereo in doubt) [Example 19, 5-fluoro-N-methyl-N-(2,2,2-trifluoro-1-(4-fluorophenyl)ethyl)thiophene-2-sulfonamide]
95.5 | CCN(C(c1ccc(F)cc1)C(F)(F)F)S(=O)(=O)c1cncc(C(N)=O)c1 (stereo in doubt) [Example 52, (S)-5-(N-ethyl-N-(2,2,2-trifluoro-1-(4-fluorophenyl)ethyl)sulfamoyl)nicotinamide]
1780 | CCN(C(c1ccc(F)cc1)C(F)(F)F)S(=O)(=O)c1cncc(C(N)=O)c1 (stereo in doubt) [Example 53, (R)-5-(N-ethyl-N-(2,2,2-trifluoro-1-(4-fluorophenyl)ethyl)sulfamoyl)nicotinamide]
8910 | CN(C(c1ccc(F)cc1)C(F)(F)F)S(=O)(=O)c1ccc(Cl)s1 (stereo not drawn) [Example 1, 5-chloro-N-methyl-N-(2,2,2-trifluoro-1-(4-fluorophenyl)ethyl)thiophene-2-sulfonamide]
3630 | CN(C(c1ccc(F)cc1)C(F)(F)F)S(=O)(=O)c1ccc(F)s1 (stereo not drawn) [Example 17, 5-fluoro-N-methyl-N-(2,2,2-trifluoro-1-(4-fluorophenyl)ethyl)thiophene-2-sulfonamide]
437 | CCN(C(c1ccc(F)cc1)C(F)(F)F)S(=O)(=O)c1ccc(C#N)s1 (stereo not drawn) [Example 21, 5-cyano-N-ethyl-N-(2,2,2-trifluoro-1-(4-fluorophenyl)ethyl)thiophene-2-sulfonamide]
741 | CCN(C(c1ccc(F)cc1)C(F)(F)F)S(=O)(=O)c1ccc(C(N)=O)s1 (stereo not drawn) [Example 22, 5-(N-ethyl-N-(2,2,2-trifluoro-1-(4-fluorophenyl)ethyl)sulfamoyl)thiophene-2-carboxamide]
282 | CCN(C(c1ccc(F)cc1)C(F)(F)F)S(=O)(=O)c1ccc(C(=O)N(C)C)s1 (stereo not drawn) [Example 25, 5-(N-ethyl-N-(2,2,2-trifluoro-1-(4-fluorophenyl)ethyl)sulfamoyl)-N,N-dimethylthiophene-2-carboxamide]
355 | CCN(C(c1ccc(F)cc1)C(F)(F)F)S(=O)(=O)c1ccc2c(c1)S(=O)(=O)CC2 (stereo not drawn) [Example 28, N-ethyl-N-(2,2,2-trifluoro-1-(4-fluorophenyl)ethyl)-2,3-dihydrobenzo[b]thiophene-6-sulfonamide 1,1-dioxide]
3800 | CCN([C@@H](c1ccc(F)cc1)C(F)(F)F)S(=O)(=O)c1cccc(C)n1 [Example 32, (S)—N-ethyl-6-methyl-N-(2,2,2-trifluoro-1-(4-fluorophenyl)ethyl)pyridine-2-sulfonamide]
468 | CCN(C(c1ccc(F)cc1)C(F)(F)F)S(=O)(=O)c1cnc(C(N)=O)s1 (stereo not drawn) [Example 46, 5-(N-ethyl-N-(2,2,2-trifluoro-1-(4-fluorophenyl)ethyl)sulfamoyl)thiazole-2-carboxamide]
501 | CCN(C(c1ccc(F)cc1)C(F)(F)F)S(=O)(=O)c1ccc(C2CNC2)s1 (stereo not drawn) [Example 47, 5-(Azetidin-3-yl)-N-ethyl-N-(2,2,2-trifluoro-1-(4-fluorophenyl)ethyl)thiophene-2-sulfonamide]
2000 | CCN(C(c1ccc(F)cc1)C(F)(F)F)S(=O)(=O)c1csc(C(=O)OC)n1 (stereo not drawn) [Example 48, methyl 4-(N-ethyl-N-(2,2,2-trifluoro-1-(4-fluorophenyl)ethyl)sulfamoyl)thiazole-2-carboxylate]
